Laboratory results: PubChem BioAssay (NCI)
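Cells were grown in 96-well plates and exposed to each compound for 48 hours at five concentrations; endpoints were interpolated linearly between bracketing concentrations, or set to the highest concentration if not reached. TGI is the concentration that stops growth completely.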

What was measured:
Test in all cases: DTP human tumour cell line panel, 48 h
DMS 273 small cell lung = tested on: DMS 273 small cell lung
HCT-116 colon = tested on: HCT-116 colon
KM12 colon = tested on: KM12 colon
NCI-H522 lung = tested on: NCI-H522 lung
HOP-92 NSCLC = tested on: HOP-92 NSCLC
HOP-62 NSCLC = tested on: HOP-62 NSCLC
MALME-3M melanoma = tested on: MALME-3M melanoma
SF-539 CNS = tested on: SF-539 CNS
CAKI-1 renal = tested on: CAKI-1 renal
SNB-19 CNS = tested on: SNB-19 CNS
MOLT-4 leukemia = tested on: MOLT-4 leukemia
SR leukemia = tested on: SR leukemia
SF-268 CNS = tested on: SF-268 CNS
TK-10 renal = tested on: TK-10 renal
A498 renal = tested on: A498 renal
HL-60(TB) leukemia = tested on: HL-60(TB) leukemia
A549 NSCLC = tested on: A549 NSCLC
MDA-N = tested on: MDA-N
MDA-MB-231 breast = tested on: MDA-MB-231 breast

| SMILES | TGI (DMS 273 small cell lung) [µM] | TGI (HCT-116 colon) [µM] | TGI (KM12 colon) [µM] | TGI (NCI-H522 lung) [µM] | TGI (HOP-92 NSCLC) [µM] | TGI (HOP-62 NSCLC) [µM] | TGI (MALME-3M melanoma) [µM] | TGI (SF-539 CNS) [µM] | TGI (CAKI-1 renal) [µM] | TGI (SNB-19 CNS) [µM] | TGI (MOLT-4 leukemia) [µM] | TGI (SR leukemia) [µM] | TGI (SF-268 CNS) [µM] | TGI (TK-10 renal) [µM] | TGI (A498 renal) [µM] | TGI (HL-60(TB) leukemia) [µM] | TGI (A549 NSCLC) [µM] | TGI (MDA-N) [µM] | TGI (MDA-MB-231 breast) [µM] |
| --- | --- | --- | --- | --- | --- | --- | --- | --- | --- | --- | --- | --- | --- | --- | --- | --- | --- | --- | --- |
| O=C(O)Cc1ccc2c(c1O)C(=O)c1c(ccc(CC(=O)O)c1O)C2=O | > 100 | > 100 | > 100 | > 100 | > 100 | > 100 | > 100 | > 100 | > 100 | > 100 | > 100 | > 100 | > 100 | > 100 | > 100 | > 100 | > 100 |  |  |
| COC(=O)/C(=N\O)C(C(=O)C=C(C)C)C(=O)C(=O)Nc1ccccc1C (configuration not stated) | > 100 | > 100 | > 100 | > 100 | > 100 | > 100 | > 100 | > 100 | > 100 | > 100 | > 100 | > 100 | > 100 | > 100 | > 100 | > 100 | > 100 |  |  |
| CCOC(=O)c1cn2c([nH]c3ccccc32)c(C#N)c1=O | > 100 | > 100 | > 100 | > 100 | > 100 | > 100 | > 100 | > 100 | > 100 | > 100 | > 100 | > 100 | > 100 | > 100 | > 100 | 47.1 | > 100 |  |  |
| COc1ccc(C2C(Cl)C(=O)N2NC(=O)c2ccc(N)cc2)cc1OC (configuration not stated) | 11.8 | 3 | 5.64 | 3.75 | 5.07 | 32.6 | 25.6 | 21.8 | 6.84 | 30.5 | 5.16 | 4.85 | 36.8 | 30.7 | 31.5 | 4.54 | 34.1 | 23.5 | 39.7 |
| CC(C)c1cccc(C(C)C)c1NC1=CC(=O)C(=O)c2ccccc21 | > 100 | > 100 | > 100 | > 100 | > 100 | > 100 | > 100 | > 100 | > 100 | > 100 | > 100 | > 100 | > 100 | > 100 | > 100 | > 100 | > 100 |  |  |
